How the values were obtained:
Format in all cases: functional
CCRF-CEM = experiment: Growth inhibition of human CCRF-CEM cells
HL-60(TB) = experiment: Growth inhibition of human HL-60(TB) cells
K562 = experiment: Growth inhibition of human K562 cells
MOLT-4 = experiment: Growth inhibition of human MOLT4 cells
EKVX = experiment: Growth inhibition of human EKVX cells
HOP-62 = experiment: Growth inhibition of human HOP62 cells
HOP-92 = experiment: Growth inhibition of human HOP92 cells
NCI-H226 = experiment: Growth inhibition of human NCI-H226 cells
NCI-H23 = experiment: Growth inhibition of human NCI-H23 cells
NCI-H322M = experiment: Growth inhibition of human NCI-H322M cells
NCI-H460 = experiment: Growth inhibition of human NCI-H460 cells
NCI-H522 = experiment: Growth inhibition of human NCI-H522 cells
COLO 205 = experiment: Growth inhibition of human COLO205 cells
HCC 2998 = experiment: Growth inhibition of human HCC2998 cells
HCT-116 = experiment: Growth inhibition of human HCT116 cells
HCT-15 = experiment: Growth inhibition of human HCT15 cells
HT-29 = experiment: Growth inhibition of human HT-29 cells
KM12 = experiment: Growth inhibition of human KM12 cells
SW-620 = experiment: Growth inhibition of human SW620 cells
SF-268 = experiment: Growth inhibition of human SF268 cells
SF-539 = experiment: Growth inhibition of human SF539 cells
SNB-19 = experiment: Growth inhibition of human SNB19 cells
SNB-75 = experiment: Growth inhibition of human SNB75 cells
U-251 = experiment: Growth inhibition of human U251 cells
LOX IMVI = experiment: Growth inhibition of human LOXIMVI cells
Malme-3M = experiment: Growth inhibition of human MALME-3M cells
M14 = experiment: Growth inhibition of human M14 cells
SK-MEL-2 = experiment: Growth inhibition of human SK-MEL-2 cells
SK-MEL-28 = experiment: Growth inhibition of human SK-MEL-28 cells
SK-MEL-5 = experiment: Growth inhibition of human SK-MEL-5 cells
UACC-257 = experiment: Growth inhibition of human UACC257 cells
UACC-62 = experiment: Growth inhibition of human UACC62 cells
IGROV-1 = experiment: Growth inhibition of human IGROV1 cells
OVCAR-3 = experiment: Growth inhibition of human OVCAR-3 cells
OVCAR-4 = experiment: Growth inhibition of human OVCAR4 cells
OVCAR-5 = experiment: Growth inhibition of human OVCAR5 cells
OVCAR-8 = experiment: Growth inhibition of human OVCAR8 cells
SK-OV-3 = experiment: Growth inhibition of human SKOV3 cells
786-0 = experiment: Growth inhibition of human 786-0 cells
A498 = experiment: Growth inhibition of human A498 cells
ACHN = experiment: Growth inhibition of human ACHN cells
CAKI-1 = experiment: Growth inhibition of human Caki1 cells
RXF 393 = experiment: Growth inhibition of human RXF393 cells
SN12C = experiment: Growth inhibition of human SN12C cells
TK-10 = experiment: Growth inhibition of human TK10 cells
UO-31 = experiment: Growth inhibition of human UO31 cells
SR = experiment: Growth inhibition of human SR cells
A549 = experiment: Growth inhibition of human A549 cells
PC-3 = experiment: Growth inhibition of human PC3 cells
DU-145 = experiment: Growth inhibition of human DU145 cells
MCF7 = experiment: Growth inhibition of human MCF7 cells
[1] = Growth inhibition of human MCF7/ADR cells; details: NCI/ADR-RES
MDA-MB-231 = experiment: Growth inhibition of human MDA-MB-231 cells
[2] = Growth inhibition of human Hs 578T cells
MDA-MB-435 = experiment: Growth inhibition of human MDA-MB-435 cells
MDA-N = experiment: Growth inhibition of human MDA-N cells
BT-549 = experiment: Growth inhibition of human BT549 cells
T47D = experiment: Growth inhibition of human T47D cells

**Q.** Which GI50 (CCRF-CEM) does the source give for `CC(C)=CC(=O)O[C@H]1C(=O)O[C@@H]2C[C@H]3[C@H](C)C(=O)C(O[C@@H]4O[C@H](CO)[C@@H](O)[C@H](O)[C@H]4O)=C[C@]3(C)[C@H]3[C@@H](O)[C@H](O)[C@]4(C(=O)O)OC[C@]32[C@@H]14` [BRUCEOSIDE D] here?
**A.** Its GI50 is 36.3 µM.

**Q.** And the GI50 (HL-60(TB))?
**A.** The GI50 was 35.5 µM.

**Q.** And the GI50 (K562)?
**A.** The GI50 was 25.7 µM.

**Q.** And the GI50 (MOLT-4)?
**A.** The GI50 was 22.4 µM.

**Q.** And the GI50 (EKVX)?
**A.** Its GI50 is greater than 100 µM.

**Q.** What about the GI50 (HOP-62) of the same compound?
**A.** Its GI50 is 33.1 µM.

**Q.** And the GI50 (HOP-92)?
**A.** The GI50 was 31.6 µM.

**Q.** What about the GI50 (NCI-H226) of the same compound?
**A.** The GI50 was 28.2 µM.

**Q.** And the GI50 (NCI-H23)?
**A.** The GI50 was greater than 100 µM.

**Q.** And the GI50 (NCI-H322M)?
**A.** Its GI50 is greater than 100 µM.

**Q.** And the GI50 (NCI-H460)?
**A.** Its GI50 is 32.4 µM.

**Q.** And the GI50 (NCI-H522)?
**A.** Its GI50 is 28.8 µM.

**Q.** What about the GI50 (COLO 205) of the same compound?
**A.** Its GI50 is greater than 100 µM.

**Q.** What about the GI50 (HCC 2998) of the same compound?
**A.** The GI50 was 24.5 µM.

**Q.** And the GI50 (HCT-116)?
**A.** Its GI50 is 29.5 µM.

**Q.** What about the GI50 (HCT-15) of the same compound?
**A.** Its GI50 is greater than 100 µM.

**Q.** And the GI50 (HT-29)?
**A.** Its GI50 is 35.5 µM.

**Q.** What about the GI50 (KM12) of the same compound?
**A.** The GI50 was 49 µM.

**Q.** And the GI50 (SW-620)?
**A.** Its GI50 is greater than 100 µM.

**Q.** And the GI50 (SF-268)?
**A.** Its GI50 is greater than 100 µM.

**Q.** And the GI50 (SF-539)?
**A.** The GI50 was 26.3 µM.

**Q.** And the GI50 (SNB-19)?
**A.** Its GI50 is 31.6 µM.

**Q.** And the GI50 (SNB-75)?
**A.** The GI50 was greater than 100 µM.

**Q.** And the GI50 (U-251)?
**A.** The GI50 was 39.8 µM.

**Q.** And the GI50 (LOX IMVI)?
**A.** The GI50 was 40.7 µM.

**Q.** What about the GI50 (Malme-3M) of the same compound?
**A.** Its GI50 is 24 µM.

**Q.** And the GI50 (M14)?
**A.** The GI50 was 32.4 µM.

**Q.** And the GI50 (SK-MEL-2)?
**A.** The GI50 was greater than 100 µM.

**Q.** And the GI50 (SK-MEL-28)?
**A.** Its GI50 is 37.2 µM.

**Q.** And the GI50 (SK-MEL-5)?
**A.** Its GI50 is 42.7 µM.

**Q.** What about the GI50 (UACC-257) of the same compound?
**A.** Its GI50 is greater than 100 µM.

**Q.** What about the GI50 (UACC-62) of the same compound?
**A.** The GI50 was greater than 100 µM.

**Q.** What about the GI50 (IGROV-1) of the same compound?
**A.** The GI50 was greater than 100 µM.

**Q.** And the GI50 (OVCAR-3)?
**A.** The GI50 was 20.4 µM.

**Q.** What about the GI50 (OVCAR-4) of the same compound?
**A.** Its GI50 is 25.1 µM.

**Q.** What about the GI50 (OVCAR-5) of the same compound?
**A.** The GI50 was greater than 100 µM.

**Q.** What about the GI50 (OVCAR-8) of the same compound?
**A.** Its GI50 is greater than 100 µM.

**Q.** What about the GI50 (SK-OV-3) of the same compound?
**A.** The GI50 was greater than 100 µM.

**Q.** What about the GI50 (786-0) of the same compound?
**A.** Its GI50 is greater than 100 µM.

**Q.** What about the GI50 (A498) of the same compound?
**A.** Its GI50 is greater than 100 µM.

**Q.** And the GI50 (ACHN)?
**A.** Its GI50 is greater than 100 µM.

**Q.** What about the GI50 (CAKI-1) of the same compound?
**A.** Its GI50 is greater than 100 µM.

**Q.** What about the GI50 (RXF 393) of the same compound?
**A.** Its GI50 is 25.1 µM.

**Q.** What about the GI50 (SN12C) of the same compound?
**A.** The GI50 was greater than 100 µM.

**Q.** What about the GI50 (TK-10) of the same compound?
**A.** The GI50 was greater than 100 µM.

**Q.** What about the GI50 (UO-31) of the same compound?
**A.** Its GI50 is 31.6 µM.

**Q.** And the GI50 (SR)?
**A.** Its GI50 is 30.9 µM.

**Q.** What about the GI50 (A549) of the same compound?
**A.** The GI50 was 55 µM.

**Q.** And the GI50 (PC-3)?
**A.** Its GI50 is greater than 100 µM.

**Q.** What about the GI50 (DU-145) of the same compound?
**A.** Its GI50 is greater than 100 µM.

**Q.** What about the GI50 (MCF7) of the same compound?
**A.** The GI50 was 22.4 µM.

**Q.** And the GI50 [1]?
**A.** Its GI50 is greater than 100 µM.

**Q.** And the GI50 (MDA-MB-231)?
**A.** Its GI50 is greater than 100 µM.

**Q.** And the GI50 [2]?
**A.** Its GI50 is greater than 100 µM.

**Q.** And the GI50 (MDA-MB-435)?
**A.** The GI50 was greater than 100 µM.

**Q.** What about the GI50 (MDA-N) of the same compound?
**A.** Its GI50 is greater than 100 µM.

**Q.** What about the GI50 (BT-549) of the same compound?
**A.** The GI50 was greater than 100 µM.

**Q.** And the GI50 (T47D)?
**A.** Its GI50 is greater than 100 µM.
